# Reference: PMC5053573, “Structure-Based Design of Tetrahydroisoquinoline-7-carboxamides as Selective Discoidin Domain Receptor 1 (DDR1) Inhibitors” (Journal of Medicinal Chemistry, 2016)
# Legend:
# DDR2 = target: T1, DDR2 (Homo sapiens, UniProt Q16832); assay: LANCE ULTRA kinase assay, DDR2; format: biochemical
# T1 sequence (Q16832 22-855): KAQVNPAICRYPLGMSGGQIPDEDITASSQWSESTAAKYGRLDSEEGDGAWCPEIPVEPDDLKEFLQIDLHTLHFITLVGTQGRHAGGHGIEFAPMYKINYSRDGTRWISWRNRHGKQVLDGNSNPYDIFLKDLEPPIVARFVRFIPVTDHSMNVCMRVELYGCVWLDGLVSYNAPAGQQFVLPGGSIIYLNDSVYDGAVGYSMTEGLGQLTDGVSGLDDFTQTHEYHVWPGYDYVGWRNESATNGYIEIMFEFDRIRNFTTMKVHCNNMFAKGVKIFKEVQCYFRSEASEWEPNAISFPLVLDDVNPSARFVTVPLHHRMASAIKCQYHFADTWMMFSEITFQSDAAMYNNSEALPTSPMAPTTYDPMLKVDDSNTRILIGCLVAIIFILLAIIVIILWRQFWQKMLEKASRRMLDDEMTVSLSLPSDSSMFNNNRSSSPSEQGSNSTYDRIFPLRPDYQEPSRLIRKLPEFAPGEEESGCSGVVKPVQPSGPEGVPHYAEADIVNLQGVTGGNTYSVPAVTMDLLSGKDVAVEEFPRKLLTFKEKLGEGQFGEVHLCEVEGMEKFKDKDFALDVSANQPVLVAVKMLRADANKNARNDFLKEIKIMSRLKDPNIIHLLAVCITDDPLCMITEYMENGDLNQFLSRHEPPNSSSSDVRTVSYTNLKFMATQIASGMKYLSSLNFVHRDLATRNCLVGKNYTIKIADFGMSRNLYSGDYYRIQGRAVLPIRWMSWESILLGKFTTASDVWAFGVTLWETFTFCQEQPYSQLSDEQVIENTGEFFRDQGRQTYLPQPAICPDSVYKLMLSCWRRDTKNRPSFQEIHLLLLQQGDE
# TRKB = target: T2, TRKB (Homo sapiens, UniProt Q16620); assay: KINOMEscan binding constant, TRKB; details: read-out: Binding affinity (Kd, nM) TRKB
# T2 construct: purchased DiscoveRx
# T2 sequence (Q16620 32-822): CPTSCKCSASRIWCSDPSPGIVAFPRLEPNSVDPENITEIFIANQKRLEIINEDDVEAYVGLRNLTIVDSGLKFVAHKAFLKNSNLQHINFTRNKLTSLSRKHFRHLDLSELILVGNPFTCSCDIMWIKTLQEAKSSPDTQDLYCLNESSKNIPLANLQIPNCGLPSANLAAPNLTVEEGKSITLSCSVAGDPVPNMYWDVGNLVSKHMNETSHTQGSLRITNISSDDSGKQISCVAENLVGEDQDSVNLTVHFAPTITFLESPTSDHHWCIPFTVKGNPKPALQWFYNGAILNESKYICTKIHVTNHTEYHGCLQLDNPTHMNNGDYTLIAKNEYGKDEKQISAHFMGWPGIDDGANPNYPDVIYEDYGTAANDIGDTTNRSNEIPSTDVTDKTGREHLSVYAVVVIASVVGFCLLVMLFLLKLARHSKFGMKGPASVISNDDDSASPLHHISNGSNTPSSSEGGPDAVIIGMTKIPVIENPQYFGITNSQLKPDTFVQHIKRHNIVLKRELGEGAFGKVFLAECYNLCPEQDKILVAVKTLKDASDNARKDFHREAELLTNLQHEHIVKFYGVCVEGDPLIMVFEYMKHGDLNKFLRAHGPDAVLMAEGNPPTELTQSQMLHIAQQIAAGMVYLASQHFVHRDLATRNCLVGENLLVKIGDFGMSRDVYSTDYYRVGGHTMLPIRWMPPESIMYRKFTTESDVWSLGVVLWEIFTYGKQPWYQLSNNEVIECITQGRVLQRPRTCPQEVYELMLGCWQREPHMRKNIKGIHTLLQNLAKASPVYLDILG
# DDR1 = DDR1 (Homo sapiens, UniProt Q08345)
# Sequence of DDR1 (Q08345 19-913): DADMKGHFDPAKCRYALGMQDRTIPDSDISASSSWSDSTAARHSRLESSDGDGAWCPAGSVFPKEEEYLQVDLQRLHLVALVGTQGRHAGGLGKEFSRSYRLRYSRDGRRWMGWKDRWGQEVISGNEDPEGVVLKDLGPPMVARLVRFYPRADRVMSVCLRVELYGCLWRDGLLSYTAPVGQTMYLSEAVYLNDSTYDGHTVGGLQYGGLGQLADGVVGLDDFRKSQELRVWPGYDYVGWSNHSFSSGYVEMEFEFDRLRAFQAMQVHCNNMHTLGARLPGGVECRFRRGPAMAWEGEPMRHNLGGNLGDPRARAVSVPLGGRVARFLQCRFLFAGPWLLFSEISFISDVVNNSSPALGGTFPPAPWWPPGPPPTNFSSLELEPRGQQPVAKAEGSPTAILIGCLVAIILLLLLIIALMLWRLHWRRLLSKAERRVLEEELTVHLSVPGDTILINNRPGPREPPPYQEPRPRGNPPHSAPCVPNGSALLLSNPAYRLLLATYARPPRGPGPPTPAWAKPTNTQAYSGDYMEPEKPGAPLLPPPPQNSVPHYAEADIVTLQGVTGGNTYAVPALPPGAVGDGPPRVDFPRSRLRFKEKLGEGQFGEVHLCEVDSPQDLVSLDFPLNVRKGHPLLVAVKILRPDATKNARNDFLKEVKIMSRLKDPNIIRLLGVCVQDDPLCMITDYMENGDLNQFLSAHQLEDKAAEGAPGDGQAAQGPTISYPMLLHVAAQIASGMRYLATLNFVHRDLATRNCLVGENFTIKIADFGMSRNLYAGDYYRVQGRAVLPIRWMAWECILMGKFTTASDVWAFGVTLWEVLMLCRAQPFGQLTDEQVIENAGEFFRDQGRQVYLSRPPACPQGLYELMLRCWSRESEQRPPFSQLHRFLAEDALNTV
Compound,IC50 (DDR2),Kd (TRKB),"DDR1 inhibition, result in words (DDR1)"
CN1CCN(Cc2cc(NC(=O)c3ccc4c(c3)CN(c3cncnc3)CC4)cc(C(F)(F)F)c2)CC1 [Compound 6a],> 7.9 µM,29 ± 5.5 nM,–
C[C@H]1CN(c2cncnc2)Cc2cc(C(=O)Nc3cc(CN4CCN(C)CC4)cc(C(F)(F)F)c3)ccc21 [Compound 6b],–,5.2 ± 1 nM,–
C[C@@H]1CN(c2cncnc2)Cc2cc(C(=O)Nc3cc(CN4CCN(C)CC4)cc(C(F)(F)F)c3)ccc21 [Compound 6c],–,36 ± 2.5 nM,–
CC[C@H]1CN(c2cncnc2)Cc2cc(C(=O)Nc3cc(CN4CCN(C)CC4)cc(C(F)(F)F)c3)ccc21 [Compound 6d],0.546 ± 0.049 µM,22 ± 1 nM,–
CC[C@@H]1CN(c2cncnc2)Cc2cc(C(=O)Nc3cc(CN4CCN(C)CC4)cc(C(F)(F)F)c3)ccc21 [Compound 6e],> 10 µM,500 ± 30 nM,–
CC(C)[C@H]1CN(c2cncnc2)Cc2cc(C(=O)Nc3cc(CN4CCN(C)CC4)cc(C(F)(F)F)c3)ccc21 [Compound 6f],> 10 µM,340 ± 5 nM,substantial potency loss
CC(C)[C@@H]1CN(c2cncnc2)Cc2cc(C(=O)Nc3cc(CN4CCN(C)CC4)cc(C(F)(F)F)c3)ccc21 [Compound 6g],> 10 µM,> 1000 nM,almost no DDR1 inhibition
CN1CCN(Cc2cc(NC(=O)c3ccc4c(c3)CN(c3cccnc3)CC4)cc(C(F)(F)F)c2)CC1 [Compound 6h],> 4 µM,94 ± 6 nM,–
CN1CCN(Cc2cc(NC(=O)c3ccc4c(c3)CN(c3ccccc3)CC4)cc(C(F)(F)F)c2)CC1 [Compound 6i],> 10 µM,> 1000 nM,totally abolished DDR1 inhibitory potency
